These results are taken from patent EP1389461A1, “Pyrimidones with antiviral properties” (Axxima Pharmaceuticals Aktiengesellschaft, priority 2002, dated 2004).

The assay deals with HCMV. Briefly: HCMV replication in vitro. Conditions: Human betaherpesvirus 5. In kind it is cell-based, human cytomegalovirus (HCMV).

Broadly, the IC50 is the midpoint of a concentration-inhibition curve. High values mean lower potency, low ones higher potency. In turn, `Nc1nc(O)c2ncn(COC(CO)CO)c2n1` [ganciclovir] gave an IC50 of 3 to 4 µM.
